Source: patent publication US20080003632A1, “Method for the In Vitro Determination of Cellular Uptake of Exogenous and Endogenous Substances Using Nmr Shift Agents and the Magic Angle Nmr Technique” (Bracco Imaging SpA, priority 2004, published 2008)

Test system: HRBC (Human Red Blood Cells)
Assay: Cellular uptake of acetylsalicylic acid in red blood cells by 1H HR-MAS NMR with shift agent Dy-BOPTA
Assay type: in vitro ADME
Text: Determination of Cellular Uptake of Acetylsalicylic Acid in Red Blood Cells
In this example, EXO=Acetylsalicylic acid; SA=Dy-BOPTA (Dy is the symbol of Dysprosium, one of the lanthanides known as shift agent).
The nucleus used to determine Acetylsalicylic acid cellular uptake is the proton.
The in vitro determination has been preformed on HRBC obtained by human blood treated as described below.
Centrifugation: the employed centrifuge was HERAEUS SEPATECH OMNIFUGE 2 ORS, rotor model 3360. Centrifugation was done at 2109 g (equivalent to 3500 rpm) at 4° C. for 15 minutes.
Living HRBC preparation: human blood (to which sodium citrate has been added as an anticoagulant) was centrifuged. After that, HRBC pellets were separated from serum and white cell interface, carefully obtaining a solution of red cells free of white cells; accordingly, red cells with 80% hematocrit were obtained.
Dy-BOPTA stock solution: a 0.1 M stock solution of Dy-BOPTA was used in all of the measurement to obtain the suitable [SA].
Acetylsalicylic acid stock solution: a 1 M stock solution of ASA containing 0.1 M of DSS (as internal standard for quantitative determination), was used in all of the measurements.
The solution was prepared by dissolving 180.16 mg of ASA and 23.63 mg of DSS in 200 ul of H2O, adding NaOH 2N until dissolution, lowering, if necessary, the pH to 7 with HCl 1N, then filling the volume to 1 ml. In this way two forms of ASA are generated that are below indicated as A and B.
Acetylsalicylic acid in HRBC: a sample containing 1 ml of HRBC (80% hematocrit), 100 μmoles of acetylsalicylic acid (i.e. 100 μl of acetylsalicylic acid stock solution) and 8 μmoles of Dy-BOPTA (i.e. 80 μl of Dy-BOPTA stock solution) was employed to measure the uptake of acetylsalicylic acid in HRBC.
Proton ^1H NMR spectra: all the ^1H NMR spectra have been acquired on a Bruker AMX 600 SB spectrometer at the frequency of 600.13 MHz. A multinuclear HR-MAS probehead with double bearing and 4 mm rotor with 12 μl spherical insert have been employed. Experimental conditions were: sample rotating speed=3500 Hz; spectra width=12,000 Hz (c.a. 20 ppm); time domain data points=128 K; number of scans=16; pulse length=11.7 μs; recycle delay=10 s; CPMG sequence; Fourier Transform by 0.5 Hz of enhancement multiplication function, sample temperature=25° C.
Proton spectra have been employed to determine acetylsalicylic acid cellular uptake, because ^1H is the sole nucleus present in acetylsalicylic acid having a high NMR sensitivity. […] Both of the two signals are marker^EXO signals.
The measurement of cellular uptake of acetylsalicylic acid by HRBC was calculated from the spectra reported in the enclosed FIG. 7.
Firstly, the ^1H NMR-MAS spectrum of HRBC was acquired (FIG. 7—trace a) in the absence of either acetylsalicylic acid (EXO) or of Dy-BOPTA (SA).
Then, 100 μl of acetylsalicylic acid 1M stock solution were added and the spectrum repeated (FIG. 7—trace b). In spectrum of trace b the two components for each signal A and B of the methyl group of acetylsalicylic acid were well visible, i.e. four peaks exist in the proton MAS-NMR spectrum. The splitting of signals A and B induces to suppose that the molecules of acetylsalicylic acid in the extra- and intra-cellular compartments are in magnetically different environments, i.e. the four observed signals corresponded to signals A e B into intra- and extra-cellular compartments, respectively.
Lastly, 80 μl of Dy-BOPTA stock solution were also added to the sample and the spectrum were again re-acquired (FIG. 7—trace c). […] Two components resulted unshifted with respect to the original marker^EXO signals while the other two components were shifted.
Acetylsalicylic acid corresponding to the unshifted marker^EXO signals is ACETYLSALICYLIC ACIDCC≠SA, i.e. acetylsalicylic acid in the intra-cellular compartment. […]

Q: With CC(=O)Oc1ccccc1C(=O)O [acetylsalicylic acid] as the compound, how does the “% of cellular uptake of acetylsalicylic acid A” value (form A, HRBC) read?
A: 3.04%

Q: And the “concentration of acetylsalicylic acid o (A)” value (form A, extracellular fluid volume 0.38 ml)?
A: 154100 µM

Q: What about the “μmoles acetylsalicylic acid o (A), amount in extra-cellular compartment” value (form A, extracellular, 1 ml HRBC 80% hematocrit, 100 μmoles ASA added, 8 μmoles Dy-BOPTA, 25° C.) of the same compound?
A: 58.56 µmol

Q: And the “concentration of acetylsalicylic acid i (A)” value (form A, intracellular fluid volume 0.8 ml)?
A: 4830 µM

Q: What about the “μmoles acetylsalicylic acid i (A), amount in intra-cellular compartment” value (form A, intracellular, 1 ml HRBC 80% hematocrit, 100 μmoles ASA added, 8 μmoles Dy-BOPTA, 25° C.) of the same compound?
A: 3.87 µmol

Q: What about the “[acetylsalicylic acid]o/[acetylsalicylic acid]i (A)” value (form A, ratio of extra- to intra-cellular concentration) of the same compound?
A: 31.90

Q: What about the “% of cellular uptake of acetylsalicylic acid B” value (form B, HRBC) of the same compound?
A: 10.40%

Q: And the “concentration of acetylsalicylic acid o (B)” value (form B, extracellular fluid volume 0.38 ml)?
A: 79440 µM

Q: And the “μmoles acetylsalicylic acid o (B), amount in extra-cellular compartment” value (form B, extracellular, 1 ml HRBC 80% hematocrit, 100 μmoles ASA added, 8 μmoles Dy-BOPTA, 25° C.)?
A: 30.19 µmol

Q: What about the “concentration of acetylsalicylic acid i (B)” value (form B, intracellular fluid volume 0.8 ml) of the same compound?
A: 9220 µM

Q: And the “μmoles acetylsalicylic acid i (B), amount in intra-cellular compartment” value (form B, intracellular, 1 ml HRBC 80% hematocrit, 100 μmoles ASA added, 8 μmoles Dy-BOPTA, 25° C.)?
A: 7.38 µmol

Q: What about the “[acetylsalicylic acid]o/[acetylsalicylic acid]i (B)” value (form B, ratio 79.44/9.22 of extra- to intra-cellular concentration) of the same compound?
A: 8.61

Q: What about the “% of cellular uptake of total acetylsalicylic acid” value (forms A + B, HRBC) of the same compound?
A: 5.67%
